Among the data in patent US9481670B2, “Triazine compounds” (Sphaera Pharma PTE. Ltd., priority 2011, dated 2016) are IC50 values, retold here.

T1 sequence (P42336 whole entry): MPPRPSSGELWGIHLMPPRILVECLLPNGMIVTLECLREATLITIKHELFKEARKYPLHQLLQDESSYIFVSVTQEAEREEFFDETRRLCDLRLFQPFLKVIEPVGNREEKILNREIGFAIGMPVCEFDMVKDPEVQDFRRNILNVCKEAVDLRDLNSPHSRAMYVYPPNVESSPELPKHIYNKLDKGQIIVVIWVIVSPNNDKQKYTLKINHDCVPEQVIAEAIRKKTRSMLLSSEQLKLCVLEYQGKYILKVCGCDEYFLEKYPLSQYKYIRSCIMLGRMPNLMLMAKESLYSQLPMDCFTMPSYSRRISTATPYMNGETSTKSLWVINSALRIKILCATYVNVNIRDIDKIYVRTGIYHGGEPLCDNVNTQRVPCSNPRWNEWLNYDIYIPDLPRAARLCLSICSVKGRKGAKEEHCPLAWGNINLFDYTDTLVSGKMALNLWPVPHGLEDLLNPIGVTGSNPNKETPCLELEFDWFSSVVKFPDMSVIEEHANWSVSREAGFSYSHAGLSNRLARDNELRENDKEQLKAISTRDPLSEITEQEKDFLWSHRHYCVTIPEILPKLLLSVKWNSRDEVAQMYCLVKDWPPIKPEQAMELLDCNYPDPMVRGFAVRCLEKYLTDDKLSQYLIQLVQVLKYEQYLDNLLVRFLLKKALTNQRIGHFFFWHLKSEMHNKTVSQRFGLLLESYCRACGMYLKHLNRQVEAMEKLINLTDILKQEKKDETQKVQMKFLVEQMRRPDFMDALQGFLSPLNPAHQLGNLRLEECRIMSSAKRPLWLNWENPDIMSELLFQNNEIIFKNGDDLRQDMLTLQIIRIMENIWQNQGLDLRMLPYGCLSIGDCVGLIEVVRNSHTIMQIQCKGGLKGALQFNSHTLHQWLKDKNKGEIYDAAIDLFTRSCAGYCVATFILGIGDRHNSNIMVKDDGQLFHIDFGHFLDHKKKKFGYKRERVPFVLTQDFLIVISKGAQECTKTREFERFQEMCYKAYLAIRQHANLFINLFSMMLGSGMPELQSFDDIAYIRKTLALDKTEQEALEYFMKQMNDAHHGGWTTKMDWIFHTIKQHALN
T1 sequence (P27986 whole entry partner): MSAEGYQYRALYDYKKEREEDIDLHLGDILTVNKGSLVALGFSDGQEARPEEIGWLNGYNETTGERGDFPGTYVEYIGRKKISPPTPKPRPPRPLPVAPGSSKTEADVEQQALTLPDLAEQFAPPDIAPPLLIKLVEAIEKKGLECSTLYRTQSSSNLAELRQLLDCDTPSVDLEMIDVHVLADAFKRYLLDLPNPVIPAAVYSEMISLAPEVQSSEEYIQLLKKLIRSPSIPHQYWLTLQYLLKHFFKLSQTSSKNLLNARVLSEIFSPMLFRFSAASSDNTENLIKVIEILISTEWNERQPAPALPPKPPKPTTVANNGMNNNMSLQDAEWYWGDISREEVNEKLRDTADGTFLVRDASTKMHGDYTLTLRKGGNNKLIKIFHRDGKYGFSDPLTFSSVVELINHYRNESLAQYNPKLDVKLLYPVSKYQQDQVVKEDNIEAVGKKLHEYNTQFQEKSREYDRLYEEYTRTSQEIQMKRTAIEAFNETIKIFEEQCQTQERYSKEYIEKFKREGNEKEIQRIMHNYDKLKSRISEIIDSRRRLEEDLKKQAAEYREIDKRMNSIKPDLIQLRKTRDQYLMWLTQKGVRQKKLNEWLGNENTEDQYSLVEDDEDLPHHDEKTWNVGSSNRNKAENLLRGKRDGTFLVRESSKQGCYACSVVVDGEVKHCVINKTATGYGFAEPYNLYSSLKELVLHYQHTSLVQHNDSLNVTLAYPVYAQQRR

The experiment addresses T1, PI3K alpha (Homo sapiens, UniProt P42336).
T1 construct: purchased Millipore Upstate
Nature of the experiment: P110 Alpha TR-FRET Assay (PI3K alpha kinase assay, HTRF Transcreener ADP Assay). It is filed as biochemical. Conditions: PI3K (WT). The procedure: PI3K alpha kinase assay may be done using HTRF Transcreener ADP Assay (Cisbio).
Composition of the reaction buffer was as follows 50 mM HEPES, pH 7.5, 5 mM MgCl2, 1 mM DTT, 30 μM Na3VO4. PI3 Kinase was procured from Millipore Upstate. […] ATP was used at final concentration of 10 μM. Corning 384 well white plates were used for the assay.
2 μl of diluted enzyme (50 ng), 3 μl of diluted compound and 5 μl of buffer were added, mixed then incubated for 20 minutes with shaking at 400 rpm. 3 μl of substrate (10 μM of ATP and 5 μM PIP2) were added to initiate the reaction. The samples were incubated for 20 min. At the end of the reaction time 10 μl of the Detection mix (5 μl of ADP-D2 and 5 μl of Anti-ADP-Cryptate) was added and the contents were incubated for 1 h. The reaction plate was directly read in an Envision Multilabel Plate Reader.
For orientation: TR-FRET usually uses a lanthanide donor and a delayed reading to cut background.
By IC50 is commonly meant the concentration at which inhibition is half-maximal. Read a low IC50 as greater potency. Turning to “2-8-[4-1,6-5-bis(morpholin-4-yl)-1,3,5-triazin-2-yl]-2H-indazole [Compound 1112]”, the IC50 was under 5 µM.

`CN(C)C(=O)c1ccc(Oc2nc(-c3cnc(N)s3)nc(N3C4CCC3COC4)n2)cc1` [Compound 1001, 4-8-{[4-1-(2-11-amino-1,3-thiazol-5-yl)-6-5-{3-oxa-8-azabicyclo[3.2.1]octan-8-yl}-1,3,5-triazin-2-yl]oxy}-N,N-dimethylbenzamide] registered an IC50 of under 5 µM.

`CN(C)C(=O)c1ccc(Oc2nc(-c3cnc(N)s3)nc(N3CCCOCC3)n2)cc1` [Compound 1002, 4-9-{[4-1-(2-17-amino-1,3-thiazol-5-yl)-6-5-(1,4-oxazepan-4-yl)-1,3,5-triazin-2-yl]oxy}-N,N-dimethylbenzamide] showed a concentration for half-maximal inhibition (IC50) of under 5 µM.

Molecule `C[C@H]1COCCN1c1nc(Oc2ccc(C(=O)N(C)C)cc2)nc(-c2cnc(N)s2)n1` [Compound 1003, 4-9-{[4-1-(2-22-amino-1,3-thiazol-5-yl)-6-5-(3-25-methylmorpholin-4-yl)-1,3,5-triazin-2-yl]oxy}-N,N-dimethylbenzamide] displayed an IC50 of under 5 µM.

As for `CN(C)C(=O)c1ccc(Oc2nc(-c3cnc(N)s3)nc(N3CCOCC3)n2)cc1` [Compound 1004, 4-14-{[4-1-(2-27-amino-1,3-thiazol-5-yl)-6-5-(morpholin-4-yl)-1,3,5-triazin-2-yl]oxy}-N,N-dimethylbenzamide], the IC50 is under 5 µM.

Molecule `CS(=O)(=O)N1CCC(COc2nc(-c3cnc(N)nc3)nc(N3CCOCC3)n2)CC1` [Compound 1005, 5-(4-((1-(methylsulfonyl)piperidin-4-yl)methoxy)-6-morpholino-1,3,5-triazin-2-yl)pyrimidin-2-amine] returned an IC50 of under 5 µM.

Turning to `CN(C)C(=O)Cc1ccc(Oc2nc(-c3cnc(N)nc3)nc(N3CCOCC3)n2)cc1` [Compound 1006, 2-26-(4-20-{[4-3-(2-15-aminopyrimidin-5-yl)-6-5-(morpholin-4-yl)-1,3,5-triazin-2-yl]oxy}phenyl)-N,N-dimethylacetamide], the 50% inhibitory concentration (IC50) is under 5 µM.

As for `Nc1ncc(-c2nc(Nc3nccs3)nc(N3CCOCC3)n2)s1` [Compound 1007, N-(4-(2-aminothiazol-5-yl)-6-morpholino-1,3,5-triazin-2-yl)thiazol-2-amine], the IC50 was under 5 µM.

`CN(C)C(=O)N1CCC(Oc2nc(-c3cnc(N)nc3)nc(N3CCOCC3)n2)CC1` [Compound 1008, 4-14-{[4-1-(2-17-aminopyrimidin-5-yl)-6-5-(morpholin-4-yl)-1,3,5-triazin-2-yl]oxy}-N,N-dimethylpiperidine-1-carboxamide] yielded an IC50 of under 5 µM.

`CN(C)C(=O)c1ccc(Oc2nc(-c3cnc(N)cn3)nc(N3CCOCC3)n2)cc1` [Compound 1009, 4-14-{[4-1-(5-17-aminopyrazin-2-yl)-6-5-(morpholin-4-yl)-1,3,5-triazin-2-yl]oxy}-N,N-dimethylbenzamide] came in with an IC50 of under 5 µM.

Molecule `Nc1ccc(-c2nc(Oc3ccc4c(c3)CCC(=O)N4)nc(N3CCOCC3)n2)cn1` [Compound 1010, 6-20-{[4-1-(6-11-ammopyridin-3-yl)-6-5-(morpholin-4-yl)-1,3,5-triazin-2-yl]oxy}-1,2,3,4-tetrahydroquinolin-2-one] had an IC50 of under 5 µM.

The molecule `CN(C)C(=O)c1ccc(Oc2nc(-c3cnc(N)nc3)nc(N3CCOCC3)n2)cc1` [Compound 1011, 4-14-{[4-1-(2-27-aminopyrimidin-5-yl)-6-5-(morpholin-4-yl)-1,3,5-triazin-2-yl]oxy}-N,N-dimethylbenzamide] came in with an IC50 of under 5 µM.

`CN(C)C(=O)c1ccc(Oc2nc(-c3ccc(N)nc3)nc(N3C4CCC3COC4)n2)cc1` [Compound 1012, 4-9-{[4-1-(6-12-aminopyridin-3-yl)-6-5-{3-oxa-8-azabicyclo[3.2.1]octan-8-yl}-1,3,5-triazin-2-yl]oxy}-N,N-dimethylbenzamide] displayed an IC50 of under 5 µM.

For the molecule `CN(C)C(=O)Cc1cccc(Oc2nc(-c3ccc(N)nc3)nc(N3CCOCC3)n2)c1` [Compound 1013, 2-26-(3-20-{[4-1-(6-11-aminopyridin-3-yl)-6-5-(morpholin-4-yl)-1,3,5-triazin-2-yl]oxy}phenyl)-N,N-dimethylacetamide], the IC50 was under 5 µM.

`CN(C)C(=O)c1ccc(Oc2nc(-c3ccc(N)nc3)nc(N3CCCOCC3)n2)cc1` [Compound 1014, 4-21-{[4-1-(6-9-aminopyridin-3-yl)-6-5-(1,4-oxazepan-4-yl)-1,3,5-triazin-2-yl]oxy}-N,N-dimethylbenzamide]: the IC50 was under 5 µM.

As for `CN(C)C(=O)c1cccc(Oc2nc(-c3ccc(N)nc3)nc(N3CCOCC3)n2)c1` [Compound 1015, 3-20-{[4-1-(6-11-aminopyridin-3-yl)-6-5-(morpholin-4-yl)-1,3,5-triazin-2-yl]oxy}-N,N-dimethylbenzamide], the IC50 was under 5 µM.

For the molecule `CN(C)C(=O)c1ccc(Oc2nc(-c3cccc4[nH]ncc34)nc(-n3ccnc3)n2)cc1` [Compound 1016, 4-9-{[4-5-(1H-imidazol-1-yl)-6-1-(1H-indazol-4-yl)-1,3,5-triazin-2-yl]oxy}-N,N-dimethylbenzamide], the IC50 was under 5 µM.

As for `CN(C)C(=O)Cc1ccc(Oc2nc(-c3ccc(N)nc3)nc(N3CCOCC3)n2)cc1` [Compound 1017, 2-20-(4-9-{[4-1-(6-12-aminopyridin-3-yl)-6-5-(morpholin-4-yl)-1,3,5-triazin-2-yl]oxy}phenyl)-N,N-dimethylacetamide], the half-maximal inhibitory concentration (IC50) was under 5 µM.

In the case of `Cc1cc(-c2nc(Oc3ccc(C(=O)N(C)C)cc3)nc(N3CCOCC3)n2)cnc1N` [Compound 1018, 4-14-{[4-1-(6-27-amino-5-26-methylpyridin-3-yl)-6-5-(morpholin-4-yl)-1,3,5-triazin-2-yl]oxy}-N,N-dimethylbenzamide], the IC50 is under 5 µM.

Molecule `CN(C)C(=O)c1ccc(Oc2nc(-c3ccc(NN)nc3)nc(N3CCOCC3)n2)cc1` [Compound 1019, 4-14-{[4-1-(6-26-hydrazinylpyridin-3-yl)-6-5-(morpholin-4-yl)-1,3,5-triazin-2-yl]oxy}-N,N-dimethylbenzamide] displayed an IC50 of under 5 µM.

`Cc1nc(N)ccc1-c1nc(Oc2ccc(C(=O)N(C)C)cc2)nc(N2CCOCC2)n1` [Compound 1020, 4-14-{[4-1-(6-17-amino-2-19-methylpyridin-3-yl)-6-5-(morpholin-4-yl)-1,3,5-triazin-2-yl]oxy}-N,N-dimethylbenzamide]: the IC50 is under 5 µM.

For the molecule `Cc1cc(Oc2nc(-c3ccc(N)nc3)nc(N3CCOCC3)n2)ccc1C(=O)N(C)C` [Compound 1021, 4-20-{[4-1-(6-16-aminopyridin-3-yl)-6-5-(morpholin-4-yl)-1,3,5-triazin-2-yl]oxy}-N,N,2-trimethylbenzamide], the IC50 was under 5 µM.

The molecule `Cc1cc(N)ncc1-c1nc(Oc2ccc(C(=O)N(C)C)cc2)nc(N2CCOCC2)n1` [Compound 1022, 4-14-{[4-1-(6-17-amino-4-15-methylpyridin-3-yl)-6-5-(morpholin-4-yl)-1,3,5-triazin-2-yl]ioxy}-N,N-dimethylbenzamide] gave an IC50 of over 5 µM.

As for `CS(=O)(=O)N1CCC(COc2nc(-c3ccc(N)nc3)nc(N3CCOCC3)n2)CC1` [Compound 1023, 5-(4-((1-(methylsulfonyl)piperidin-4-yl)methoxy)-6-morpholino-1,3,5-triazin-2-yl)pyridin-2-amine], the half-maximal inhibitory concentration (IC50) is under 5 µM.

As to `CN(C)C(=O)c1ccc(Oc2nc(-c3ccncc3)nc(-c3cccc4[nH]ncc34)n2)cc1` [Compound 1024, 4-9-{[4-1-(1H-indazol-4-yl)-6-5-(pyridin-4-yl)-1,3,5-triazin-2-yl]oxy}-N,N-dimethylbenzamide], the IC50 is over 5 µM.

Molecule `CN(C)C(=O)N1CC[C@H](COc2nc(-c3ccc(N)nc3)nc(N3CCOCC3)n2)C1` [Compound 1025, 3-21-({[4-3-(6-16-aminopyridin-3-yl)-6-5-(morpholin-4-yl)-1,3,5-triazin-2-yl]oxy}methyl)-N,N-dimethylpyrrolidine-1-carboxamide] had an IC50 of under 5 µM.

Take `CN(C)C(=O)N1CC[C@H](Oc2nc(-c3ccc(N)nc3)nc(N3CCOCC3)n2)C1` [Compound 1026, 3-19-{[4-3-(6-16-aminopyridin-3-yl)-6-5-(morpholin-4-yl)-1,3,5-triazin-2-yl]oxy}-N,N-dimethylpyrrolidine-1-carboxamide]: the IC50 was under 5 µM.

Regarding `CN(C)C(=O)c1ccc(Oc2nc(-c3ccc(N)nc3)nc(N3CCOCC3)n2)cc1` [Compound 1027, 4-14-{[4-1-(6-17-aminopyridin-3-yl)-6-5-(morpholin-4-yl)-1,3,5-triazin-2-yl]oxy}-N,N-dimethylbenzamide], the IC50 is under 5 µM.

On to `CN(C)C(=O)N1CCC(Oc2nc(-c3ccc(N)nc3)nc(N3CCOCC3)n2)CC1` [Compound 1028, 4-20-{[4-1-(6-11-aminopyridin-3-yl)-6-5-(morpholin-4-yl)-1,3,5-triazin-2-yl]oxy}-N,N-dimethylpiperidine-1-carboxamide], for which the IC50 is under 5 µM.

In the case of `CN(C)C(=O)c1ccc(Oc2nc(-c3ccc(F)nc3)nc(N3CCOCC3)n2)cc1` [Compound 1029, 4-14-{[4-1-(6-17-fluoropyridin-3-yl)-6-5-(morpholin-4-yl)-1,3,5-triazin-2-yl]oxy}-N,N-dimethylbenzamide], the IC50 was under 5 µM.

Turning to `CN(C)C(=O)c1ccc(Oc2nc(-c3cccc(O)c3)nc(N3CCOCC3)n2)cc1` [Compound 1030, 4-14-{[4-1-(3-21-hydroxyphenyl)-6-5-(morpholin-4-yl)-1,3,5-triazin-2-yl]oxy}-N,N-dimethylbenzamide], the IC50 is under 5 µM.
